Source: patent US9006257B2, “Bicyclic compounds as mPGES-1 inhibitors” (Glenmark Pharmaceuticals S.A., priority 2012, dated 2015)

Target: T1, Recombinant human mPGES-1 (Homo sapiens, UniProt O14684)
T1 construct: made in house; host or cells: CHO cells
T1 sequence (O14684 1-152): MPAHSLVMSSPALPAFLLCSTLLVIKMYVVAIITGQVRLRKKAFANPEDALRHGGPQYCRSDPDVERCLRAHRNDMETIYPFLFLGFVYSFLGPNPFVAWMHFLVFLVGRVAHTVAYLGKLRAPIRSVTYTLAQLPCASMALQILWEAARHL
Assay: In-vitro mPGES-1 inhibitor screening (inhibition of PGE2 formation from PGH2, HTRF detection)
Type: biochemical
Conditions: for inhibition at 1 µM: 1 μM test compound, read-out: Percentage inhibition at 1 μM; for inhibition at 1 µM / inhibition at 10 µM: crude microsomal fraction, 15 μM PGH2; for inhibition at 10 µM: 10 μM test compound, read-out: Percentage inhibition at 10 μM; for IC50: class symbol, concentration response curve
From the text: In-Vitro Protocol for Screening of mPGES-1 Inhibitors:
mPGES-1 (microsomal prostaglandin E synthase-1) is a microsomal enzyme that converts endoperoxide substrate PGH2 (prostaglandin H2) to product PGE2 (prostaglandin E2) by isomerization in the presence of reduced glutathione (GSH). mPGES-1 inhibitors were screened by assessing their ability to inhibit formation of PGE2 from PGH2 in presence of mPGES-1 using an anti-PGE2 antibody based detection method. Recombinant human mPGES-1 was generated in-house by expression in CHO cells (Ouellet M et al. (2002), Protein Expression and Purification 26: 489-495). The assay was set up using crude microsomal fractions at protein concentration of 40-60 μg/mL. Test compounds were prepared in 100% dimethyl sulfoxide (DMSO) to obtain 20 mM stock solution and then diluted using assay buffer comprising 0.1 M Potassium phosphate buffer with 2 mM EDTA. The final concentration of DMSO in reaction was 0.5% (v/v). Negative controls were comprised of all assay reagents except the enzyme. Positive controls were comprised of the enzyme reaction in the absence of any inhibitor. Test compounds were incubated for 10 minutes in assay buffer containing 2.5 mM GSH and mPGES-1 enzyme followed by addition of PGH2 at a concentration of 15 μM for 1 minute. The reaction was stopped by addition of Stannous chloride (11 mg/ml) and PGE2 levels were measured (Masse F et al. (2005), Journal of Biomolecular Screening 10(6) 599-605., Goedken R E et al. (2008), Journal of Biomolecular Screening 13(7): 619-625) by HTRF kit (CisBio)).
Inhibition of mPGES-1 enzyme activity was measured using the percent of reaction occurring in the positive control. Concentration response curves were plotted using percent inhibition of maximum enzyme reaction. The IC50 value was calculated from the concentration response curve by nonlinear regression analysis using GraphPad PRISM software.

| inhibition at 1 µM | inhibition at 10 µM | IC50 | Compound |
| --- | --- | --- | --- |
| 94.3% | 93.9% | < 50 nM | CC(C)(C)C(=O)NCc1ccc(Cl)c(C(=O)Nc2cccc3c(Oc4cccc(C(F)(F)F)c4)ccnc23)n1 [Example-17, 3-Chloro-6-(pivalamidomethyl)-N-(4-(3-(trifluoromethyl)phenoxy)quinolin-8-yl)picolinamide] |
| 98.7% | 98.7% | < 50 nM | CC(C)(C)C(=O)NCc1ccc(Cl)c(C(=O)Nc2cccc3c(Nc4cccc(C(F)(F)F)c4)ccnc23)c1F [Example-31, 6-Chloro-2-fluoro-3-(pivalamidomethyl)-N-(4-((3-(trifluoromethyl)phenyl)amino)quinolin-8-yl)benzamide] |
| 88.3% | 97.2% | > 100 nM | CN(C)c1ncnc2c(NC(=O)c3c(Cl)ccc(CNC(=O)C(C)(C)C)c3F)cccc12 [Example-61, 6-Chloro-N-(4-(dimethylamino)quinazolin-8-yl)-2-fluoro-3-(pivalamidomethyl)benzamide] |
| 100% | 99.6% | < 50 nM | CC1(C)CCC(Nc2ncnc3c(NC(=O)c4c(Cl)ccc(CNC(=O)C(C)(C)C)c4F)cccc23)CC1 [Example-22, 6-Chloro-N-(4-((4,4-dimethylcyclohexyl)amino)quinazolin-8-yl)-2-fluoro-3-(pivalamidomethyl)benzamide] |
| 51.3% | 93.4% |  | Cc1nc(N2CCOCC2)c2cccc(NC(=O)c3c(Cl)ccc(CNC(=O)C(C)(C)C)c3F)c2n1 [Example-58, 6-Chloro-2-fluoro-N-(2-methyl-4-morpholinoquinazolin-8-yl)-3-(pivalamidomethyl)benzamide] |
| 95% | 94.9% | < 50 nM | O=C(Nc1cccc2c(Nc3cccc(C(F)(F)F)c3)ncnc12)c1c(Cl)ccc(CNC(=O)[C@@H]2CCCO2)c1F [Example-23, (S)—N-(4-Chloro-2-fluoro-3-((4-((3-(trifluoromethyl)phenyl)amino)quinazolin-8-yl)carbamoyl)benzyl)tetrahydrofuran-2-carboxamide] |
| 99.3% | 99.8% | < 50 nM | CC1(C)CCC(Oc2ncnc3c(NC(=O)c4c(Cl)ccc(CNC(=O)C(C)(C)C)c4F)cccc23)CC1 [Example-24, 6-Chloro-N-(4-((4,4-dimethylcyclohexyl)oxy)quinazolin-8-yl)-2-fluoro-3-(pivalamidomethyl)benzamide] |
| 90.6% | 94.5% | < 50 nM | CC(C)Nc1ncnc2c(NC(=O)c3c(Cl)ccc(CNC(=O)C(C)(C)C)c3F)cccc12 [Example-64, 6-Chloro-2-fluoro-N-(4-(isopropylamino)quinazolin-8-yl)-3-(pivalamidomethyl)benzamide] |
| 97.9% | 99.3% | 50 to 100 nM | Cc1nc(Oc2cccc(C(F)(F)F)c2)c2cccc(NC(=O)c3c(Cl)ccc(CNC(=O)C(C)(C)C)c3F)c2n1 [Example-56, 6-Chloro-2-fluoro-N-(2-methyl-4-(3-(trifluoromethyl)phenoxy)quinazolin-8-yl)-3-(pivalamidomethyl)benzamide] |
| 94.5% | 95.9% | < 50 nM | CC1(C)CCC(Nc2nc(C(F)(F)F)nc3c(NC(=O)c4c(Cl)ccc(CNC(=O)C(C)(C)C)c4F)cccc23)CC1 [Example-32, 6-Chloro-N-(4-((4,4-dimethylcyclohexyl)amino)-2-(trifluoromethyl)quinazolin-8-yl)-2-fluoro-3-(pivalamidomethyl)benzamide] |
| 96% | 98.1% | < 50 nM | Cc1ccc(CNC(=O)C(C)(C)C)c(C)c1C(=O)Nc1cccc2c(Nc3cccc(C(F)(F)F)c3)nccc12 [Example-3, 2,6-Dimethyl-3-(pivalamidomethyl)-N-(1-((3-(trifluoromethyl)phenyl)amino)isoquinolin-5-yl)benzamide] |
| 78.4% | 99.9% | < 50 nM | CC(C)Nc1ncnc2c(NC(=O)c3c(Cl)ccc(CNC(=O)C(C)C)c3F)cccc12 [Example-77, 6-Chloro-2-fluoro-3-(isobutyramidomethyl)-N-(4-(isopropylamino)quinazolin-8-yl)benzamide] |
| 91.1% | 95.2% | < 50 nM | CC(C)(C)C(=O)NCc1ccc(Cl)c(C(=O)Nc2cccc3c(Oc4ccc(F)c(C(F)(F)F)c4)nccc23)c1 [Example-48, 2-Chloro-N-(1-(4-fluoro-3-(trifluoromethyl)phenoxy)isoquinolin-5-yl)-5-(pivalamidomethyl)benzamide] |
| 99% | 99.8% | < 50 nM | CC(C)(C)C(=O)NCc1ccc(Cl)c(C(=O)Nc2cccc3c(Nc4ccc(C(F)(F)F)cc4F)ncnc23)c1F [Example-29, 6-Chloro-2-fluoro-N-(4-((2-fluoro-4-(trifluoromethyl)phenyl)amino)quinazolin-8-yl)-3-(pivalamidomethyl)benzamide] |
| 99.5% | 98.5% | < 50 nM | CC(C)(C)C(=O)NCc1ccc(Cl)c(C(=O)Nc2cccc3c(Oc4cccc(C(F)(F)F)c4)nccc23)c1F [Example-5, 6-Chloro-2-fluoro-3-(pivalamidomethyl)-N-(1-(3-(trifluoromethyl)phenoxy)isoquinolin-5-yl)benzamide] |
| 97.3% | 97.2% | < 50 nM | CC(C)(C)C(=O)NCc1ccc(Cl)c(C(=O)Nc2cccc3c(Nc4cc(C(F)(F)F)ccc4F)ncnc23)c1F [Example-21, 6-Chloro-2-fluoro-N-(4-((2-fluoro-5-(trifluoromethyl)phenyl)amino)quinazolin-8-yl)-3-(pivalamidomethyl)benzamide] |
| 99% | 99.6% | < 50 nM | CC(C)(C)C(=O)NCc1ccc(Cl)c(C(=O)Nc2cccc3c(Oc4cccc(C(F)(F)F)c4)ccnc23)c1 [Example-16, 2-Chloro-5-(pivalamidomethyl)-N-(4-(3-(trifluoromethyl)phenoxy)quinolin-8-yl)benzamide] |
| 98% | 99.5% | < 50 nM | CC(C)(C)C(=O)NCc1ccc(Cl)c(C(=O)Nc2cccc3c(O[C@H]4CC[C@H](C(F)(F)F)CC4)ncnc23)c1 [Example-39, 2-Chloro-5-(pivalamidomethyl)-N-(4-(((1r,4r)-4-(trifluoromethyl)cyclohexyl)oxy)quinazolin-8-yl)benzamide] |
| 99.7% | 98.9% | < 50 nM | CC(C)(C)C(=O)NCc1ccc(Cl)c(C(=O)Nc2cccc3c(Oc4cccc(C(F)(F)F)c4)ncnc23)c1 [Example-10, 2-Chloro-5-(pivalamidomethyl)-N-(4-(3-(trifluoromethyl)phenoxy)quinazolin-8-yl)benzamide] |
| 98.1% | 99.1% | < 50 nM | CC(C)(C)C(=O)NCc1ccc(Cl)c(C(=O)Nc2cccc3c(N[C@H]4CC[C@H](C(F)(F)F)CC4)nccc23)c1F [Example-36, 6-Chloro-2-fluoro-3-(pivalamidomethyl)-N-(1-(((1r,4r)-4-(trifluoromethyl)cyclohexyl)amino)isoquinolin-5-yl)benzamide] |
| 84.9% | 98.2% | < 50 nM | CC(C)(C)Nc1ncnc2c(NC(=O)c3c(Cl)ccc(CNC(=O)C(C)(C)CO)c3F)cccc12 [Example-69, N-(4-(tert-Butylamino)quinazolin-8-yl)-6-chloro-2-fluoro-3-((3-hydroxy-2,2-dimethylpropanamido)methyl)benzamide] |
| 94.1% | 99.8% | < 50 nM | CC(C)(C)C(=O)NCc1ccc(Cl)c(C(=O)Nc2cccc3cccnc23)c1F [Example-55, 6-Chloro-2-fluoro-3-(pivalamidomethyl)-N-(quinolin-8-yl)benzamide] |
| 100% | 100% | < 50 nM | CC(C)C(=O)NCc1cnc(C(F)F)c(C(=O)Nc2cccc3c(Oc4cccc(C(F)(F)F)c4)ncnc23)c1 [Example-74, 2-(Difluoromethyl)-5-(isobutyramidomethyl)-N-(4-(3-(trifluoromethyl)phenoxy)quinazolin-8-yl)nicotinamide] |
